The test system of the first series is human neutrophils. The series can be described thus: IL-8 calcium flux assay. The conditions noted are these: @ 11 μM; human neutrophils stimulated with human IL-8. It counts as cell-based. The protocol: Compounds of Formula I and II were evaluated for their effect on calcium flux using methodology known in the art, e.g., Neote K., DiGregorio D., Mak J. Y., Horuk R., and Schall T. J., “Molecular cloning, functional expression, and signaling characteristics of a C—C chemokine receptor,” Cell, 1993;72:415.
Briefly, human neutrophils were incubated with the fluorescence dye FLUO-3 for 1 hour. The cells were washed after this loading period, resuspended in HANKs buffer, and loaded into a 96-well plate. Compound was added to each well. After a 2-minute incubation period, the cells were stimulated with human IL-8 and the calcium flux response recorded and quantified.
In the case of “6-Chloro-N-[4-(dimethylamino)cyclohexyl]-3-(2-pyridinyl)-2-quinoxalinamine and 7-Chloro-N-[4-(dimethylamino)cyclohexyl]-3-(2-pyridinyl)-2-quinoxalinamine, Dihydrochloride, Hydrate [Example 1]”, the “IL-8 Ca+2 Flux % Inhibition (μM)” value stood at 34% @ 11.

In a further series the test system is human neutrophils. As to the kind of experiment: IL-8 chemotaxis assay. The conditions noted are these: Neutrophil, 0.5 h; freshly isolated human neutrophils, rhIL-8 as chemoattractant, 30 minutes at 37° C. It counts as cell-based. The protocol: Compounds of Formula I and II were evaluated for their effect on chemotaxis using methodology known in the art, e.g., Carr M. W., Roth S. J., Luther E., Rose S. S., and Springer T. A., “Monocyte chemoattractant protein 1 acts as a T-lymphocyte chemoattractant.” Proc. Natl. Acad Sci. USA, 1994;91:3652; Qin S., Larosa G., Campbell J. J. et al., “Expression of MCP-1 and IL-8 receptors on subset on T-cells, and correlation with transendothelial chemotactic potential,” Eur. J. Immu., 1996;26:640.
Briefly, freshly isolated human neutrophils were resuspended in chemotaxis buffer, which is made of one part of RPMI 1640 medium, one part of Medium 199, and 0.5% BSA. The cells were incubated with or without compounds for 5 minutes. Similarly, rhIL-8 was incubated in a separate plate, then transferred into lower chambers of chemotaxis plate. Neutrophils were added onto the top chamber. The plates were incubated at 37° C. for 30 minutes. The top chamber was then removed and the plate frozen at −80° C. for 30 minutes. After thawing, migrated cells were stained with Cytoquant Cell Proliferation Assay Kit (Molecular Probes No. C-7026) and quantitated by reading the plate on a fluorescent plate reader.
A word on the IC50: it is the concentration at which inhibition is half-maximal. In the case of `CN(C)CCCNc1nc2cc(Cl)c(Cl)cc2nc1-c1ccco1` [Example 14, N′-(6,7-Dichloro-3-furan-2-yl-quinoxalin-2-yl)-N,N-dimethyl-propane-1,3-diamine], the midpoint of inhibition, the IC50, lay at 1.8 µM. That is a single-digit micromolar value.

`CN(C)CCCNc1nc2cc(Cl)c(Cl)cc2nc1-c1cccs1` [Example 15, N′-(6,7-Dichloro-3-thiophen-2-yl-quinoxalin-2-yl)-N,N-dimethyl-propane-1,3-diamine]: the IC50 was determined as 0.32 µM.

For `CCN(CC)CCCCNc1nc2cc(Cl)c(Cl)cc2nc1-c1cc2ccccc2s1` [Example 25, N′(3-Benzo[b]thiophen-2-yl-6,7-dichloro-quinoxalin-2-yl)-N,N-4-diethyl-butane-1,4-diamine], the IC50 was found to be 0.31 µM.

The molecule `CCN(CC)CCCCNc1nc2cc(Cl)c(Cl)cc2nc1-c1ccc(C)s1` [Example 28, N′-[6,7-Dichloro-3-(5-methyl-thiophen-2-yl)quinoxalin-2-yl]-N,N-diethyl-butane-1,4-diamine] returned an IC50 of 0.4 µM. This IC50 and that of the molecule before are within 1.5-fold of each other.

The molecule `CCN(CC)CCCCNc1nc2cc(Cl)c(Cl)cc2nc1-c1ccc(-c2cccs2)s1` [Example 34, N′-(3-[2,2′]Bithiophenyl-5-yl-6,7-dichloro-quinoxalin-2-yl)-N,N-diethyl-butane-1,4-diamine] had a 50% inhibitory concentration (IC50) of 0.08 µM.

Staying with this series, now noted: freshly isolated human neutrophils, rhIL-8 as chemoattractant, 30 minutes at 37° C.
In the case of “6-Chloro-N-[4-(dimethylamino)cyclohexyl]-3-(2-pyridinyl)-2-quinoxalinamine and 7-Chloro-N-[4-(dimethylamino)cyclohexyl]-3-(2-pyridinyl)-2-quinoxalinamine, Dihydrochloride, Hydrate [Example 1]”, the IC50 is 0.89 µM.

System in the next series: not given
Assay: not given
Details: not given
Broadly, the melting point is the temperature of the solid-liquid transition. Regarding `CN(C)C1CCC(Nc2nc3cc(Cl)c(Cl)cc3nc2-c2ccccn2)CC1.Cl` (stereo not drawn), the melting point fell in the range of 180 to 182 °C.

Regarding `Cl.N[C@H]1CC[C@H](Nc2nc3cc(Cl)c(Cl)cc3nc2-c2ccccn2)CC1`, the melting point was 280 to 282 °C (dec.).

On to `Cl.Clc1cc2nc(-c3ccccn3)c(N3CCC(N4CCCCC4)CC3)nc2cc1Cl`, for which the melting point was 275 to 277 °C (dec.).

Consider `c1ccc(-c2nc3ccccc3nc2NC2CN3CCC2CC3)nc1` (stereo not drawn), for which the melting point fell in the range of 63 to 65 °C.

In turn, `CCN(CC)CCCCNc1nc2cc(Cl)c(Cl)cc2nc1-c1cc2ccccc2[nH]1.Cl` had a melting point of 145 to 147 °C.

`CCN(CC)CCCCNc1nc2cc(Cl)c(Cl)cc2nc1-c1ccc(Cl)s1.Cl` returned a melting point of 98 to 100 °C.

In turn, `CCCc1ccc(-c2nc3cc(Cl)c(Cl)cc3nc2NCCCCN(CC)CC)s1.Cl` showed a melting point of 165 to 167 °C.

The molecule `CCN(CC)CCCCNc1nc2cc(Cl)c(Cl)cc2nc1-c1cc2ccccc2o1.Cl` had a melting point of 220 °C.

As to `CCN(CC)CCCCNc1nc2cc(Cl)c(Cl)cc2nc1-c1cccc2c1sc1ccccc12.Cl`, the melting point was 134 to 136 °C.

Regarding `c1ccc(-c2nc3ccccc3nc2NCCCn2ccnc2)nc1` [Example 3, N-[3-(1H-Imidazol-1-yl)propyl]-3-(2-pyridinyl)-2-quinoxalinamine], the melting point is 85 to 86 °C.

`CN1CCCC1CCNc1nc2ccccc2nc1-c1ccccn1` (stereo not drawn) [Example 4, N-[2-(1-Methyl-2-pyrrolidinyl)ethyl]-3-(2-pyridinyl)-2-quinoxalinamine] came in with a melting point of 186 to 188 °C.

For the molecule `c1ccc(-c2nc3ccccc3nc2Nc2ccc(N3CCOCC3)cc2)nc1` [Example 6, N-[4-(4-Morpholinyl)phenyl]-3-(2-pyridinyl)-2-quinoxalinamine], the melting point is 205 to 206 °C.

`c1ccc(-c2nc3ccccc3nc2NCc2ccncc2)nc1` [Example 7, N-(4-Pyridinylmethyl)-3-(2-pyridinyl)-2-quinoxalinamine] displayed a melting point of 142 to 144 °C.

For `CN(C)c1ccc(Nc2nc3ccccc3nc2-c2ccccn2)cc1` [Example 8, N-[4-(Dimethylamino)phenyl]-3-(2-pyridinyl)-2-quinoxalinamine], the melting point was in the range of 169 to 170 °C.

`CC(=O)N(C)c1ccc(Nc2nc3ccccc3nc2-c2ccccn2)cc1` [Example 9, N-Methyl-N-[4-[[3-(2-pyridinyl)-2-quinoxalinyl]amino]phenyl]-acetamide] had a melting point of 165 to 166 °C.

Turning to `CCN(CC)Cc1ccc(Nc2nc3cc(Cl)c(Cl)cc3nc2-c2ccccn2)cc1` [Example 13, (6,7-Dichloro-3-pyridin-2-yl-quinoxalin-2-yl)-(4-diethylaminomethyl-phenyl)-amine], the melting point was 250 to 252 °C (dec.).

The molecule `CN(C)CCCCNc1nc2cc(F)c(F)cc2nc1-c1cccs1` [Example 17, N′-(6,7-Difluoro-3-thiophen-2-yl-quinoxalin-2-yl)-N,N-dimethyl-butane-1,4-diamine] gave a melting point of 175 to 177 °C.

The values are drawn from patent US6548499B1, “Substituted quinoxaline derivatives as interleukin-8 receptor antagonists” (Millennium Pharmaceuticals, Inc., priority 1998, dated 2003).
